In PMC6104039 (Nature Communications, 2018):
“And” between values parts separate entries of the source, which are not always exact repeats. Identical values can stand only once.

System: HEK293 cells
Assay: Endogenous ceramide, HexCer and SM levels in cells treated 24 h, targeted LC-MS/MS
Format: cell-based
Details: HEK293 cells, 24 h
Method: Lipids were then extracted using MTBE/methanol/water as described above.
HEK293 cell culture experiment: Levels of each lipid in P053-treated HEK293 cells were normalised to the mean of the vehicle control group, and each concentration was compared to the control using ANOVA with Dunnett’s post-test. P values were adjusted for multiple comparisons in GraphPad PRISM.
Supplementary Figure 1. Ceramide, SM, and HexCer levels in HEK293 cells treated with
P053. Absolute lipid levels were determined by targeted LC-MS/MS, relative to external
standard curves. Results are mean ± SEM (n = 4) from one of two identical experiments.
Statistically significant results, based on two independent experiments, are as indicated in
Figure 2b-d. Raw data for these figures is provided in Supplementary Data File 1.

C[C@@](N)(CO)CCc1ccc(OCc2ccc(Cl)c(Cl)c2)cc1 [P053, (S)-2-amino-4-(4-(3,4-dichlorobenzyloxy)phenyl)-2-methylbutan-1-ol]
24:1 SM level (P053 10 nM): 96.7947 percentage of the vehicle control group and 98.2864 percentage of the vehicle control group and 81.9082 percentage of the vehicle control group and 117.227 percentage of the vehicle control group and 113.319 percentage of the vehicle control group and 103.033 percentage of the vehicle control group and 103.816 percentage of the vehicle control group and 97.9548 percentage of the vehicle control group
14:0 SM level (P053 30 nM): 116.988 percentage of the vehicle control group and 111.4 percentage of the vehicle control group and 100.814 percentage of the vehicle control group and 94.1513 percentage of the vehicle control group and 120.651 percentage of the vehicle control group and 105.592 percentage of the vehicle control group and 111.904 percentage of the vehicle control group and 100.551 percentage of the vehicle control group
16:0 Cer level (P053 30 nM): 114.03 percentage of the vehicle control group and 105.56 percentage of the vehicle control group and 86.7073 percentage of the vehicle control group and 95.6011 percentage of the vehicle control group and 106.761 percentage of the vehicle control group and 98.8726 percentage of the vehicle control group and 108.159 percentage of the vehicle control group and 97.2516 percentage of the vehicle control group
16:0 HexCer level (P053 30 nM): 79.9911 percentage of the vehicle control group and 81.3101 percentage of the vehicle control group and 74.3038 percentage of the vehicle control group and 88.8289 percentage of the vehicle control group and 99.9863 percentage of the vehicle control group and 95.9283 percentage of the vehicle control group and 102.652 percentage of the vehicle control group and 109.256 percentage of the vehicle control group
16:0 SM level (P053 30 nM): 101.805 percentage of the vehicle control group and 101.307 percentage of the vehicle control group and 94.9476 percentage of the vehicle control group and 93.9555 percentage of the vehicle control group and 110.566 percentage of the vehicle control group and 97.2802 percentage of the vehicle control group and 102.981 percentage of the vehicle control group and 97.8958 percentage of the vehicle control group
16:1 SM level (P053 30 nM): 104.561 percentage of the vehicle control group and 101.096 percentage of the vehicle control group and 98.3763 percentage of the vehicle control group and 109.464 percentage of the vehicle control group and 104.292 percentage of the vehicle control group and 104.01 percentage of the vehicle control group and 101.515 percentage of the vehicle control group
18:0 Cer level (P053 30 nM): 72.2013 percentage of the vehicle control group and 69.2543 percentage of the vehicle control group and 56.626 percentage of the vehicle control group and 64.3691 percentage of the vehicle control group and 82.5432 percentage of the vehicle control group and 84.0607 percentage of the vehicle control group and 83.9582 percentage of the vehicle control group and 71.3957 percentage of the vehicle control group
18:0 HexCer level (P053 30 nM): 55.7883 percentage of the vehicle control group and 64.0009 percentage of the vehicle control group and 45.6733 percentage of the vehicle control group and 59.2017 percentage of the vehicle control group and 57.5393 percentage of the vehicle control group and 74.8051 percentage of the vehicle control group and 77.6074 percentage of the vehicle control group
18:0 SM level (P053 30 nM): 73.8483 percentage of the vehicle control group and 78.6872 percentage of the vehicle control group and 83.1913 percentage of the vehicle control group and 75.9206 percentage of the vehicle control group and 97.6949 percentage of the vehicle control group and 87.2321 percentage of the vehicle control group and 89.1916 percentage of the vehicle control group and 74.9956 percentage of the vehicle control group
18:1 SM level (P053 30 nM): 87.9585 percentage of the vehicle control group and 73.1683 percentage of the vehicle control group and 79.2449 percentage of the vehicle control group and 71.4358 percentage of the vehicle control group and 96.5941 percentage of the vehicle control group and 87.3865 percentage of the vehicle control group and 81.7473 percentage of the vehicle control group and 78.1368 percentage of the vehicle control group
20:0 Cer level (P053 30 nM): 62.7306 percentage of the vehicle control group and 109.856 percentage of the vehicle control group and 118.09 percentage of the vehicle control group and 96.2985 percentage of the vehicle control group and 100.9 percentage of the vehicle control group and 105.057 percentage of the vehicle control group and 91.6087 percentage of the vehicle control group
22:0 Cer level (P053 30 nM): 116.044 percentage of the vehicle control group and 99.7524 percentage of the vehicle control group and 91.9349 percentage of the vehicle control group and 88.0267 percentage of the vehicle control group and 116.852 percentage of the vehicle control group and 103.772 percentage of the vehicle control group and 120.038 percentage of the vehicle control group and 118.899 percentage of the vehicle control group
22:0 HexCer level (P053 30 nM): 90.0465 percentage of the vehicle control group and 79.6776 percentage of the vehicle control group and 76.0982 percentage of the vehicle control group and 95.044 percentage of the vehicle control group and 107.866 percentage of the vehicle control group and 100.167 percentage of the vehicle control group and 123.322 percentage of the vehicle control group and 116.268 percentage of the vehicle control group
22:0 SM level (P053 30 nM): 128.14 percentage of the vehicle control group and 90.1111 percentage of the vehicle control group and 110.345 percentage of the vehicle control group and 114.556 percentage of the vehicle control group and 123.558 percentage of the vehicle control group and 116.784 percentage of the vehicle control group and 129.764 percentage of the vehicle control group and 100.326 percentage of the vehicle control group
22:1 SM level (P053 30 nM): 99.3902 percentage of the vehicle control group and 113.946 percentage of the vehicle control group and 108.27 percentage of the vehicle control group and 113.134 percentage of the vehicle control group and 107.671 percentage of the vehicle control group and 100.443 percentage of the vehicle control group and 99.5068 percentage of the vehicle control group and 95.4079 percentage of the vehicle control group
24:0 HexCer level (P053 30 nM): 96.4804 percentage of the vehicle control group and 86.7028 percentage of the vehicle control group and 84.7209 percentage of the vehicle control group and 91.5325 percentage of the vehicle control group and 104.127 percentage of the vehicle control group and 98.7325 percentage of the vehicle control group and 129.497 percentage of the vehicle control group and 115.717 percentage of the vehicle control group
24:0 SM level (P053 30 nM): 114.636 percentage of the vehicle control group and 105.214 percentage of the vehicle control group and 97.3725 percentage of the vehicle control group and 90.2877 percentage of the vehicle control group and 117.867 percentage of the vehicle control group and 114.443 percentage of the vehicle control group and 132.815 percentage of the vehicle control group and 128.722 percentage of the vehicle control group
24:1 Cer level (P053 30 nM): 117.491 percentage of the vehicle control group and 102.844 percentage of the vehicle control group and 87.9247 percentage of the vehicle control group and 98.6487 percentage of the vehicle control group and 120.911 percentage of the vehicle control group and 109.977 percentage of the vehicle control group and 130.805 percentage of the vehicle control group and 124.062 percentage of the vehicle control group
24:1 HexCer level (P053 30 nM): 93.843 percentage of the vehicle control group and 87.9781 percentage of the vehicle control group and 89.6469 percentage of the vehicle control group and 99.7739 percentage of the vehicle control group and 102.587 percentage of the vehicle control group and 104.249 percentage of the vehicle control group and 119.244 percentage of the vehicle control group and 107.968 percentage of the vehicle control group
24:1 SM level (P053 30 nM): 102.826 percentage of the vehicle control group and 100.942 percentage of the vehicle control group and 98.397 percentage of the vehicle control group and 94.2567 percentage of the vehicle control group and 116.83 percentage of the vehicle control group and 103.091 percentage of the vehicle control group and 120.071 percentage of the vehicle control group and 112.514 percentage of the vehicle control group
14:0 SM level (P053 100 nM): 112.517 percentage of the vehicle control group and 90.2734 percentage of the vehicle control group and 104.152 percentage of the vehicle control group and 104.709 percentage of the vehicle control group and 117.225 percentage of the vehicle control group and 115.891 percentage of the vehicle control group and 108.424 percentage of the vehicle control group and 118.856 percentage of the vehicle control group
